This note sets out measurements from ChEMBL document CHEMBL4382235, “Design, synthesis and biological evaluation of novel 1-phenyl phenanthridin-6(5H)-one derivatives as anti-tumor agents targeting TOPK” (Eur J Med Chem, 2019).

Structures are written as SMILES. A value given as a limit tells only on which side of the number the result lay.

Test [1] has as its system A549. Put plainly: cells. The note with it: Homo sapiens, A549, 72 h.
Description: Antiproliferative activity against human A549 cells after 72 hrs by MTT assay
In test [2] the test system is HCT-116. The experiment in a line: cells. The following applies: Homo sapiens, HCT-116, 72 h.
Description: Antiproliferative activity against human HCT116 cells after 72 hrs by MTT assay
The test system of test [3] is HCT-15. Put plainly: cells. The note with it: Homo sapiens, HCT-15, 72 h.
Description: Antiproliferative activity against human HCT15 cells after 72 hrs by MTT assay
Test [4] has as its system HCT-116. Put plainly: animal or person. The following applies: Mus musculus, HCT-116, po, read-out: TGI.

What is called IC50 is the midpoint of a concentration-inhibition curve. A high value points to a need for much substance. Regarding `Cc1cc(O)c(-c2ccc(C3(CN)CC3)cc2)c2c1[nH]c(=O)c1c(O)cccc12`, the results for the half-maximal inhibitory concentration (IC50) in test [1] and in test [2] were 136 nM and 44.7 nM, respectively.

Regarding `NCC1(c2ccc(-c3c(O)cc(Cl)c4[nH]c(=O)c5c(O)cccc5c34)cc2)CC1`, the IC50 came to 437 nM in test [1] and 564 nM in test [2].

In the case of `CN(C)CC1(c2ccc(-c3c(O)cc(Cl)c4[nH]c(=O)c5c(O)cccc5c34)cc2)CC1`, the IC50 in test [1] is 898 nM; in test [2], > 1000 nM.

Regarding `Cc1ccc2c(c1)c(=O)[nH]c1c(C)cc(O)c(-c3ccc([C@@H](C)N(C)C)cc3)c12`, the IC50 in test [1] and in test [2] was > 1000 nM each time.

Take `Cc1cc(O)c(-c2ccc([C@@H](C)CN)cc2)c2c1[nH]c(=O)c1sccc12`: the concentration for half-maximal inhibition (IC50) is 19.5 nM in test [1], 18.9 nM in test [2] and 187 nM in test [3].

Turning to `Cc1ccc2c(c1)c(=O)[nH]c1c(C)cc(O)c(-c3ccc([C@@H](C)N)cc3)c12`, the IC50 was > 1000 nM in test [1] and 571 nM in test [2].

For `C[C@@H](CN)c1ccc(-c2c(O)cc(Cl)c3[nH]c(=O)c4c(O)cccc4c23)cc1`, the IC50 in test [1] was 103 nM; in test [2], 372 nM.

Turning to `Cc1cc(O)c(-c2ccc([C@@H](C)N(C)C)cc2)c2c1[nH]c(=O)c1ccccc12`, the values for the IC50 in test [1] and in test [2] were 250 nM and 314 nM, respectively.

`Cc1cc(O)c(-c2ccc([C@@H](C)CN(C)C)cc2)c2c1[nH]c(=O)c1sccc12`: the IC50 came out at 20.4 nM in test [1], 45 nM in test [2] and 73.1 nM in test [3]. In addition, the inhibition in vivo at 15 mg/kg in test [4] amounted to 49.4%.

`Cc1cc(O)c(-c2ccc(C3(CN(C)C)CC3)cc2)c2c1[nH]c(=O)c1c(N(C)C)cccc12`: the IC50 in test [1] and in test [2] was > 1000 nM in each case.

`COc1cc(C)c2[nH]c(=O)c3ccccc3c2c1-c1ccc([C@@H](C)N)cc1`: the half-inhibitory concentration (IC50) in test [1] and in test [2] was > 1000 nM in each case.

With `Cc1cc(O)c(-c2ccc([C@@H](C)N)cc2)c2c1[nH]c(=O)c1ccccc12`, the values for the IC50 in test [1], in test [2] and in test [3] were 920 nM, > 1000 nM and > 1000 nM, respectively.

Regarding `Cc1cc(O)c(-c2ccc([C@@H](C)CN)cc2)c2c1[nH]c(=O)c1c(C)cccc12`, the IC50 in test [1] is 25.9 nM; in test [2], 75.8 nM; in test [3] it was 301 nM.

As for `Cc1ccc2c(=O)[nH]c3c(C)cc(O)c(-c4ccc([C@@H](C)CN(C)C)cc4)c3c2c1`, the IC50 worked out at 466 nM in test [1], 385 nM in test [2] and 501 nM in test [3].

Turning to `C[C@@H](CN(C)C)c1ccc(-c2c(O)cc(Cl)c3[nH]c(=O)c4ccccc4c23)cc1`, the IC50 in test [1], in test [2] and in test [3] was > 1000 nM throughout.

With `Cc1cc(O)c(-c2ccc([C@@H](C)N)cc2)c2c1[nH]c(=O)c1c(C)cccc12`, the IC50 in test [1] is 187 nM; in test [2] it was 242 nM; in test [3], 505 nM.

In the case of `Cc1cc(O)c(-c2ccc([C@@H](C)CN(C)C)cc2)c2c1[nH]c(=O)c1ccccc12`, the IC50 in test [1] was determined as 264 nM; in test [2], 299 nM; in test [3], 600 nM.

For the compound `Cc1cc(O)c(-c2ccc([C@@H](C)N(C)C)cc2)c2c1[nH]c(=O)c1c(C)cccc12`, the values for the IC50 in test [1], in test [2] and in test [3] were 470 nM, 469 nM and 397 nM, respectively.

On to `C[C@@H](CN(C)C)c1ccc(-c2c(O)cc(Cl)c3[nH]c(=O)c4c(O)cccc4c23)cc1`, for which the values for the IC50 in test [1] and in test [2] were 554 nM and 534 nM, respectively.

As to `Cc1cc(O)c(-c2ccc(C3(CN)CC3)cc2)c2c1[nH]c(=O)c1ccccc12`, the IC50 in test [1] came out at 211 nM; in test [2], 231 nM; in test [3], 398 nM.

Take `Cc1ccc2c(=O)[nH]c3c(C)cc(O)c(-c4ccc([C@@H](C)N)cc4)c3c2c1`: the half-maximal inhibitory concentration (IC50) in test [1] was found to be 120 nM; in test [2], 385 nM; in test [3] it was 217 nM.

Take `Cc1cc(O)c(-c2ccc([C@@H](C)CN)cc2)c2c1[nH]c(=O)c1c(F)cccc12`: the 50% inhibitory concentration (IC50) in test [1] is 110 nM; in test [2], 438 nM; in test [3] it was > 1000 nM.

For the compound `Cc1ccc2c(c1)c(=O)[nH]c1c(C)cc(O)c(-c3ccc([C@@H](C)CN(C)C)cc3)c12`, the results for the half-maximal inhibitory concentration (IC50) in test [1] and in test [2] were > 1000 nM and 830 nM, respectively.

For `C[C@@H](CN)c1ccc(-c2c(O)cc(Cl)c3[nH]c(=O)c4ccccc4c23)cc1`, the IC50 in test [1] is > 1000 nM; in test [2] it was 636 nM; in test [3], 309 nM.

As for `Cc1cc(O)c(-c2ccc([C@@H](C)CN(C)C)cc2)c2c1[nH]c(=O)c1c(O)cccc12`, the IC50 in test [1] was 113 nM; in test [2] it was 215 nM; in test [3], 76 nM.

`Cc1ccc2c(=O)[nH]c3c(C)cc(O)c(-c4ccc([C@@H](C)CN)cc4)c3c2c1`: the figures for the IC50 in test [1], in test [2] and in test [3] were 60.3 nM, 156 nM and 327 nM, respectively.

For the compound `COc1cc(C)c2[nH]c(=O)c3ccccc3c2c1-c1ccc([C@@H](C)CN)cc1`, the results for the IC50 in test [1], in test [2] and in test [3] were 360 nM, 357 nM and 278 nM, respectively.

Turning to `C[C@@H](N)c1ccc(-c2c(O)cc(Cl)c3[nH]c(=O)c4ccccc4c23)cc1`, the results for the IC50 in test [1], in test [2] and in test [3] were 600 nM, > 1000 nM and 801 nM, respectively.

Turning to `C[C@@H](N)c1ccc(-c2c(O)cc(Cl)c3[nH]c(=O)c4c(O)cccc4c23)cc1`, the figures for the IC50 in test [1] and in test [2] were 554 nM and 720 nM, respectively.

Regarding `Cc1cc(O)c(-c2ccc([C@@H](C)N)cc2)c2c1[nH]c(=O)c1c(O)cccc12`, the IC50 amounted to 82.5 nM in test [1], 102 nM in test [2] and 96.7 nM in test [3].

As for `Cc1cc(O)c(-c2ccc([C@@H](C)N)cc2)c2c1[nH]c(=O)c1sccc12`, the results for the IC50 in test [1], in test [2] and in test [3] were 360 nM, 468 nM and 257 nM, respectively.

Turning to `Cc1cc(O)c(-c2ccc([C@@H](C)CN)cc2)c2c1[nH]c(=O)c1c(N(C)C)cccc12`, the IC50 in test [1] and in test [2] was > 1000 nM in each case.

Consider `Cc1cc(O)c(-c2ccc(C3(CN(C)C)CC3)cc2)c2c1[nH]c(=O)c1ccccc12`, for which the IC50 in test [1] was > 1000 nM; in test [2], 950 nM.

Regarding `C[C@H](c1ccc(-c2c(O)cc(Cl)c3[nH]c(=O)c4ccccc4c23)cc1)N(C)C`, the IC50 in test [1], in test [2] and in test [3] was > 1000 nM each time.

For the compound `Cc1cc(O)c(-c2ccc([C@@H](C)N(C)C)cc2)c2c1[nH]c(=O)c1c(O)cccc12`, the IC50 in test [1] was 128 nM; in test [2], 396 nM; in test [3], 162 nM.

For `Cc1ccc2c(c1)c(=O)[nH]c1c(C)cc(O)c(-c3ccc([C@@H](C)CN)cc3)c12`, the IC50 in test [1] is > 1000 nM; in test [2] it was 962 nM.

As to `COc1cc(C)c2[nH]c(=O)c3ccccc3c2c1-c1ccc(C2(CN)CC2)cc1`, the figures for the IC50 in test [1] and in test [2] were 894 nM and > 1000 nM, respectively.

With `Cc1ccc2c(=O)[nH]c3c(C)cc(O)c(-c4ccc([C@@H](C)N(C)C)cc4)c3c2c1`, the IC50 is 317 nM in test [1], 274 nM in test [2] and 467 nM in test [3].

Turning to `C[C@H](c1ccc(-c2c(O)cc(Cl)c3[nH]c(=O)c4c(O)cccc4c23)cc1)N(C)C`, the IC50 was 516 nM in test [1] and > 1000 nM in test [2].

As for `Cc1cc(O)c(-c2ccc([C@@H](C)CN(C)C)cc2)c2c1[nH]c(=O)c1c(C)cccc12`, the half-maximal inhibitory concentration (IC50) in test [1] stood at 287 nM; in test [2], 419 nM; in test [3] it was 337 nM.

On to `Cc1cc(O)c(-c2ccc(C3(CN(C)C)CC3)cc2)c2c1[nH]c(=O)c1c(O)cccc12`, for which the IC50 in test [1] amounted to 406 nM; in test [2], 141 nM.

In the case of `Cc1cc(O)c(-c2ccc([C@@H](C)CN)cc2)c2c1[nH]c(=O)c1ccccc12`, the IC50 in test [1] amounted to 78.7 nM; in test [2] it was 114 nM; in test [3], 365 nM.
